Measurements published in patent publication US7727986B2, “Pesticide pyrimidinyloxy substituted phenylamidine derivatives” (Bayer CropScience AG, priority 2005, dated 2010).

Test: logP by HPLC on reversed-phase column (C 18), EEC Directive 79/831 Annex V.A8
Type: physicochemical
Details: for chromatographic logP: reversed-phase C18 HPLC column, value in preparation example text, read-out: log P (pH 2.3)
Method: Temperature: 40° C.; Mobile phases: 0.1% aqueous formic acid and acetonitrile; linear gradient from 10% acetonitrile to 90% acetonitrile.

[1] = HPLC, 0.1% aqueous formic acid and acetonitrile, 40° C., pH 2.3
[2] = measured at pH = 4 (footnote a)

| logPa [1] | Compound | also measured |
| --- | --- | --- |
|  | Cc1cc(Oc2ccnc(Oc3cccc(Cl)c3C)n2)c(C)cc1N [4-[2-(3-chloro-2-methyl-phenoxy)-pyrimidin-4-yloxy]-2,5-dimethyl-phenylamine] | chromatographic logP (pH 2.3): 2.81 |
| 1.4 | CCN(C)C=Nc1cc(C)c(Oc2ccnc(N3CCCCC3)n2)cc1C [Compound 21] |  |
| 1.55 | CCCN(C)C=Nc1cc(C)c(Oc2ccnc(OCC)n2)cc1C [Compound 50] |  |
| 1.62 | Cc1cc(Oc2nc(Cl)ncc2C)c(C)cc1N=CN(C)C(C)C [Compound 46] |  |
| 1.96 | CCN(C)C=Nc1cc(C)c(Oc2ccnc(Oc3ccccc3)n2)cc1C [Compound 72] |  |
|  | CCN(C)c1nc(Oc2cc(C)c(N)cc2C)ncc1Cl [2-(4-amino-2,5-dimethylphenoxy)-5-chloro-N-ethyl-N-methylpyrimidin-4-amine] | chromatographic logP (pH 2.3): 1.88 |
|  | CCN(C)C=Nc1cc(C)c(Oc2cc(C(C)(C)C)ncn2)cc1C [Compound 4] | logPa [2]: 1.98^a |
| 1.4 | CCN(C)C=Nc1cc(C)c(Oc2cc(Cl)ncn2)cc1C [Compound 15] |  |
| 1.95 | CCCN(C)C=Nc1cc(C)c(Oc2ncc(Cl)c(N(C)CC)n2)cc1C [Compound 100] |  |
| 2.75 | Cc1cc(Oc2ccnc(Oc3ccc(C(C)(C)C)cc3)n2)c(C)cc1N=CN1CCCCC1 [Compound 78] |  |
| 2.37 | CCN(C)C=Nc1cc(C)c(Oc2ccnc(Oc3ccc(C(F)(F)F)cc3)n2)cc1C [Compound 87] |  |
| 1.68 | CCCN(C)C=Nc1cc(C)c(Oc2nc(Cl)ncc2C)cc1C [Compound 28] |  |
| 2.18 | Cc1cc(Oc2ccnc(Oc3ccc(Cl)cc3)n2)c(C)cc1N=CN1CCCCC1 [Compound 82] |  |
| 1.99 | CCN(C)C=Nc1cc(C)c(Oc2cc(C)nc(Oc3ccccc3)n2)cc1C [Compound 73] |  |
| 1.56 | Cc1cc(Oc2ccnc(N3CCCCC3)n2)c(C)cc1N=CN(C)C(C)C [Compound 34] |  |
|  | CCN(C)c1nc(Oc2cc(C)c([N+](=O)[O-])cc2C)ncc1Cl [5-chloro-2-(2,5-dimethyl-4-nitrophenoxy)-N-ethyl-N-methylpyrimidin-4-amine] | chromatographic logP (pH 2.3): 4.07 |
| 1.99 | CCCN(C)C=Nc1cc(C)c(Oc2ncnc(CC)c2Cl)cc1C [Compound 84] |  |
| 1.32 | CCN(C)C=Nc1cc(C)c(Oc2cc(OC)ncn2)cc1C [Compound 39] |  |
| 1.77 | CCCN(C)c1cc(Oc2cc(C)c(N=CN(C)C(C)C)cc2C)ncn1 [Compound 53] |  |

| logPa [1] | Compound | also measured |
| --- | --- | --- |
| 2.14 | CCCN(C)C=Nc1cc(C)c(Oc2ccnc(Oc3cccc(Cl)c3)n2)cc1C [Compound 67] |  |
| 1.46 | CCN(C)C=Nc1cc(C)c(Oc2cc(N(C)CC)ncn2)cc1C [Compound 43] |  |
| 2.09 | Cc1cc(Oc2cc(C)c(N=CN3CCCCC3)cc2C)nc(Oc2ccccc2)n1 [Compound 75] |  |
| 1.16 | CCN(C)C=Nc1cc(C)c(Oc2ccnc(OC)n2)cc1C [Compound 11] |  |
| 1.47 | CCOc1nccc(Oc2cc(C)c(N=CN(C)CC)cc2C)n1 [Compound 47] |  |
| 2.49 | Cc1cc(Oc2ccnc(Oc3ccc(C(F)(F)F)cc3)n2)c(C)cc1N=CN1CCCCC1 [Compound 88] |  |
| 0.89 | CCCN(C)C=Nc1cc(C)c(Oc2ccnc(N(C)C)n2)cc1C [Compound 38] |  |
| 1.56 | CCCN(C)C=Nc1cc(C)c(Oc2cc(Cl)ncn2)cc1C [Compound 16] |  |
| 1.41 | Cc1cc(Oc2ncc(Cl)cn2)c(C)cc1N=CN(C)C(C)C [Compound 97] |  |
|  | Cc1cc(Oc2ccnc(Cl)n2)c(C)cc1N [4-(2-chloro-pyrimidin-4-yloxy)-2.5-dimethyl-phenylamine] | log P (pH 2.3) (pH 2.3): 1.37 |
| 1.67 | CCN(C)C=Nc1cc(C)c(Oc2cc(Cl)nc(Cl)n2)cc1C [Compound 69] |  |
| 1.93 | CCN(C)c1nc(Oc2cc(C)c(N=CN3CCCCC3)cc2C)ncc1Cl [Compound 101] |  |
| 1.46 | Cc1cc(Oc2ccnc(N3CCOCC3)n2)c(C)cc1N=CN(C)C(C)C [Compound 33] |  |
| 1.32 | CCN(C)C=Nc1cc(C)c(Oc2ncc(Cl)cn2)cc1C [Compound 95] |  |
|  | CCN(C)C=Nc1cc(C)c(Oc2cc(-c3cccc(C(F)(F)F)c3)ncn2)cc1C [Compound 6] | logPa [2]: 3.19^a |
| 1.68 | CCN(C)C=Nc1cc(C)c(Oc2ccnc(Oc3ccccc3)n2)cc1C [Compound 35] |  |
| 1.48 | CCCN(C)C=Nc1cc(C)c(Oc2ncc(Cl)cn2)cc1C [Compound 96] |  |
| 1.80 | COc1ccc(Oc2nccc(Oc3cc(C)c(N=CN4CCCCC4)cc3C)n2)cc1OC [Compound 74] |  |
|  | CCN(C)C=Nc1cc(C)c(Oc2nccc(C(F)(F)F)n2)cc1C [Compound 90] | logPa [2]: 0.22^a |

| logPa [1] | Compound | also measured |
| --- | --- | --- |
| 1.91 | CCc1ncnc(Oc2cc(C)c(N=CN(C)CC)cc2C)c1Cl [Compound 83] |  |
| 1.65 | CCN(C)C=Nc1cc(C)c(Oc2ccnc(Oc3ccc(OC)c(OC)c3)n2)cc1C [Compound 71] |  |
| 1.42 | CCN(C)C=Nc1cc(C)c(Oc2nc(Cl)ncc2C)cc1C [Compound 27] |  |
| 1.45 | CCN(C)C=Nc1cc(C)c(Oc2cc(C)nc(Cl)n2)cc1C [Compound 3, N′-{4-[(2-chloro-6-methylpyrimidin-4-yl)oxy]-2,5-dimethylphenyl}-N-ethyl-N-methylimido-formamide] | chromatographic logP (pH 2.3): 1.45 |
| 2.11 | CCN(C)C=Nc1cc(C)c(Oc2ccnc(Oc3ccc(Cl)cc3)n2)cc1C [Compound 81] |  |
| 1.62 | CCOc1nccc(Oc2cc(C)c(N=CN(C)C(C)C)cc2C)n1 [Compound 44] |  |
| 1.19 | CCN(C)C=Nc1cc(C)c(Oc2ncc(C)c(C)n2)cc1C [Compound 93] |  |
| 1.58 | CCCN(C)C=Nc1cc(C)c(Oc2ccnc(N3CCCCC3)n2)cc1C [Compound 22] |  |
| 1.61 | CCN(C)C=Nc1cc(C)c(Oc2ccnc(N(C)c3ccccc3)n2)cc1C [Compound 1, N′-{2,5-dimethyl-4-[2-(methyl-phenyl-amino)-pyrimidin-4-yloxy]-phenyl}-N-ethyl-N-methyl-formamidine] | chromatographic logP (pH 2.3): 1.61 |
| 2.8 | Cc1cc(Oc2cc(Cl)nc(C(C)(C)C)n2)c(C)cc1N=CN(C)C(C)C [Compound 60] |  |
|  | CCN(C)C=Nc1cc(C(C)C)c(Oc2nccc(C(F)(F)F)n2)cc1C [Compound 92] | logPa [2]: 1.10^a |
| 1.79 | CCCN(C)C=Nc1cc(C)c(Oc2cc(N(C)CCC)ncn2)cc1C [Compound 51] |  |
| 1.38 | CCCN(C)C=Nc1cc(C)c(Oc2ccnc(OC)n2)cc1C [Compound 12] |  |
| 1.94 | CCN(C)C=Nc1cc(C)c(Oc2ccnc(Nc3cccc(Cl)c3)n2)cc1C [Compound 30] |  |
| 1.01 | Cc1cc(Oc2ccnc(N3C=NCC3)n2)c(C)cc1N=CN(C)C(C)C [Compound 31] |  |
| 2.02 | CCN(C)C=Nc1cc(C)c(Oc2ccnc(Oc3cccc(C)c3)n2)cc1C [Compound 79] |  |
| 2.12 | Cc1cc(Oc2ccnc(Oc3cccc(Cl)c3)n2)c(C)cc1N=CN(C)C(C)C [Compound 68] |  |
| 1.4 | CCCN(C)C=Nc1cc(C)c(Oc2ncc(C)c(C)n2)cc1C [Compound 94] |  |
| 1.98 | CCN(C)c1nc(Oc2cc(C)c(N=CN(C)C(C)C)cc2C)ncc1Cl [Compound 99] |  |

| Compound | logPa [1] | also measured |
| --- | --- | --- |
| CCCN(C)C=Nc1cc(C)c(Oc2ccnc(N3CCOCC3)n2)cc1C [Compound 20] | 3.13 |  |
